Measurements as given in patent publication US20250127753A1, “PHARMACEUTICAL APPLICATION OF DIMYRICETIN-YL-DISELENIDE IN TUMORS” (Shanghai Spark Pharmaceutical Co., Ltd., priority 2023, published 2025).

Key:
T24 = experiment: In vitro cell viability (CTG), T24; assay type: cell-based, Human; conditions: T24 cells, 72 hours, CTG assay
Protocol: (§1) Collect cells in the exponential growth phase and count viable cells separately using a cell counter. Adjust the cell suspension to an appropriate concentration with the corresponding culture medium. Add 90 μL of the cell suspension to each well of a 96-well cell culture plate, with 3 replicate wells containing 5000 cells/well. Place the plate in an incubator at 37° C. with 5% CO2 overnight.
(§2) On the second day, add 10 μL of dimyricetin diselenide and cisplatin to the corresponding wells. The highest final concentration of dimyricetin diselenide is 300 μg/ml (i.e., 379 μM), and the highest final concentration of cisplatin is 300 μM. A total of 9 concentrations are prepared with a 3-fold dilution.
(§3) After 72 hours, detect cell viability using the CTG assay.
(§4) Using GraphPad Prism 8.0 software, an S-shaped dose-survival curve was plotted with log (inhibitor) as the x-axis and response as the y-axis, adopting the Variable slope (four parameters) model to calculate the IC50 value.

MBT-2 = experiment: In vitro cell viability (CTG), MBT-2; assay type: cell-based, Mouse; conditions: MBT-2 cells, 72 hours, CTG assay
Protocol: as §1, §2, §3, §4

HCC1954 = experiment: In vitro cell viability (CTG), HCC1954; assay type: cell-based, Human; conditions: HCC1954 cells, 72 hours, CTG assay
Protocol: as §1, §2, §3, §4

EMT-6 = experiment: In vitro cell viability (CTG), EMT-6; assay type: cell-based, Mouse; conditions: EMT-6 cells, 72 hours, CTG assay
Protocol: as §1, §2, §3, §4

HCT116 = experiment: In vitro cell viability (CTG), HCT116; assay type: cell-based, Human; conditions: HCT116 cells, 72 hours, CTG assay
Protocol: as §1, §2, §3, §4

CT-26.WT = experiment: In vitro cell viability (CTG), CT-26.WT; assay type: cell-based, Mouse; conditions: CT-26.WT cells, 72 hours, CTG assay
Protocol: as §1, §2, §3, §4

MKN45 = experiment: In vitro cell viability (CTG), MKN45; assay type: cell-based, Human; conditions: MKN45 cells, 72 hours, CTG assay
Protocol: as §1, §2, §3, §4

MFC = experiment: In vitro cell viability (CTG), MFC; assay type: cell-based, Mouse; conditions: MFC cells, 72 hours, CTG assay
Protocol: as §1, §2, §3, §4

786-O = experiment: In vitro cell viability (CTG), 786-O; assay type: cell-based, Human; conditions: 786-O cells, 72 hours, CTG assay
Protocol: as §1, §2, §3, §4

Renca = experiment: In vitro cell viability (CTG), Renca; assay type: cell-based, Mouse; conditions: Renca cells, 72 hours, CTG assay
Protocol: as §1, §2, §3, §4

Hep G2 = experiment: In vitro cell viability (CTG), Hep G2; assay type: cell-based, Human; conditions: Hep G2 cells, 72 hours, CTG assay
Protocol: as §1, §2, §3, §4

H22 = experiment: In vitro cell viability (CTG), H22; assay type: cell-based, Mouse; conditions: H22 cells, 72 hours, CTG assay
Protocol: as §1, §2, §3, §4

HCC827 = experiment: In vitro cell viability (CTG), HCC827; assay type: cell-based, Human; conditions: HCC827 cells, 72 hours, CTG assay
Protocol: as §1, §2, §3, §4

LL/2(LLC1) = experiment: In vitro cell viability (CTG), LL/2(LLC1); assay type: cell-based, Mouse; conditions: LL/2(LLC1) cells, 72 hours, CTG assay
Protocol: as §1, §2, §3, §4

A375 = experiment: In vitro cell viability (CTG), A375; assay type: cell-based, Human; conditions: A375 cells, 72 hours, CTG assay
Protocol: as §1, §2, §3, §4

B16-F10 = experiment: In vitro cell viability (CTG), B16-F10; assay type: cell-based, Mouse; conditions: B16-F10 cells, 72 hours, CTG assay
Protocol: as §1, §2, §3, §4

PANC-1 = experiment: In vitro cell viability (CTG), PANC-1; assay type: cell-based, Human; conditions: PANC-1 cells, 72 hours, CTG assay
Protocol: as §1, §2, §3, §4

Panc 02 = experiment: In vitro cell viability (CTG), Panc 02; assay type: cell-based, Mouse; conditions: Pance 02 cells, 72 hours, CTG assay
Protocol: as §1, §2, §3, §4

DU145 = experiment: In vitro cell viability (CTG), DU145; assay type: cell-based, Human; conditions: DU145 cells, 72 hours, CTG assay
Protocol: as §1, §2, §3, §4

RM-1 = experiment: In vitro cell viability (CTG), RM-1; assay type: cell-based, Mouse; conditions: RM-1 cells, 72 hours, CTG assay
Protocol: as §1, §2, §3, §4

[1] = test system: H22 subcutaneous transplanted tumor; experiment: Pharmacodynamics of subcutaneous transplanted tumor in vivo (H22); parameters: species or system BALB/c mice
Protocol: • Animal species and strain: BALB/c mice • Drug administration history: None • Gender and age: Female, 6-7 weeks old • Breeder/supplier: Shanghai Jihui Laboratory Animal Breeding Co., Ltd. or other qualified suppliers • Experimental facility: Pengli Biology Animal Facility • Acclimation period: 3-7 days • Number of animals: 42 • Housing: SPF (Specific Pathogen Free) area • Indoor temperature: 20-26° C. • Indoor relative humidity: 40-70% • Lighting: Fluorescent lighting, 12 hours on (08:00-20:00) and 12 hours off • Animal housing: 2-6 mice per cage (same treatment group) • Food: Ad libitum access to irradiated feed (supplied by Jiangsu Xie Tong Pharmaceutical Bioengineering Co., Ltd., China) • Water: Ad libitum access to drinking water (tap water treated by reverse osmosis or autoclaving and acidified)
BALB/c mice were purchased from Shanghai Jihui Laboratory Animal Breeding Co., Ltd. for the H22 efficacy experiment. The animals were free of specific pathogens and arrived at Pengli Biology Animal Facility at approximately 5-6 weeks of age. The proposed animal handling procedures for the experimental protocol will be reviewed and approved by the IACUC (Institutional Animal Care and Use Committee) of Pengli Biology before the start of the experiment.
The H22 cell line used in this experiment was cultured in RPMI-1640 medium supplemented with 10% FBS in a CO2 incubator at 37° C. Prior to continuous culturing for ten passages, approximately 3×10^6 H22 cells were suspended in PBS and subcutaneously inoculated into each mouse at a volume of 100 μL. Mice were anesthetized with 3-4% isoflurane before inoculation.
When tumors grew to an average size of approximately 50-80 mm3, tumor-bearing mice were randomly divided into 4 groups of 8 mice each based on body weight and tumor size. The day of group assignment and drug administration was defined as Day 0. The grouping and dosing regimen are outlined in the table below.
Tumor Volume: Measure the tumor volume twice weekly after grouping for a consecutive 4 weeks. The calculation method for tumor volume (V) is as follows: V=(Length×Width^2)/2. The relative tumor volume (RTV) for each nude mouse is calculated as: RTV=Vt/V0, where Vt is the measured volume for each day and V0 is the volume at the start of treatment.
Relative Tumor Proliferation Rate (T/C %): Used to evaluate the antitumor activity of the drug. The relative tumor proliferation rate T/C (%) is calculated as the mean RTV of the treatment group (T) divided by the mean RTV of the negative control group (C), multiplied by 100%.
Tumor Growth Inhibition (TG1%): TG1%=(1−T/C)×100%, where T is the mean RTV of the treatment group and C is the mean RTV of the negative control group.

SK-OV-3 = experiment: In vitro cell viability (CTG), SK-OV-3; assay type: cell-based, Human; conditions: SK-OV-3 cells, 72 hours, CTG assay
Protocol: as §1, §2, §3, §4

tumor cells = experiment: In vitro cell experiment, overall statement on the tumor cell panel; assay type: cell-based; conditions: 21 tumor cell lines, 72 hours, CTG assay
Protocol: as §1, §2, §3, §4

## N.N.[Cl][Pt][Cl] [Cisplatin, reference compound]
T24
  IC50: 3.71 µM
MBT-2
  IC50: 9.91 µM
HCC1954
  IC50: 13.2 µM
EMT-6
  IC50: 6.58 µM
HCT116
  IC50: 7.01 µM
CT-26.WT
  IC50: 7.48 µM
MKN45
  IC50: 6.7 µM
MFC
  IC50: 5.96 µM
786-O
  IC50: 3.68 µM
Renca
  IC50: 6.03 µM
Hep G2
  IC50: 8.49 µM
H22
  IC50: 2.17 µM
HCC827
  IC50: 15.1 µM
LL/2(LLC1)
  IC50: 10.6 µM
A375
  IC50: 5.36 µM
B16-F10
  IC50: 16.9 µM
PANC-1
  IC50: 13.8 µM
Panc 02
  IC50: 9.86 µM
DU145
  IC50: 3.59 µM
RM-1
  IC50: 3.83 µM
[1]; G2, 1 mg/kg i.v. BIW, 0 day (baseline)
  TV (tumor volume): 75.96 mm^3
[1]; G2, 1 mg/kg i.v. BIW, 3 days
  TGI (tumor growth inhibition): −3.49%
  TV (tumor volume): 288.49 mm^3
[1]; G2, 1 mg/kg i.v. BIW, 5 days
  TGI (tumor growth inhibition): 6.13%
  TV (tumor volume): 351.18 mm^3
[1]; G2, 1 mg/kg i.v. BIW, 7 days
  TGI (tumor growth inhibition): 22.78%
  TV (tumor volume): 597.48 mm^3
[1]; G2, 1 mg/kg i.v. BIW, 10 days
  TGI (tumor growth inhibition): 30.23%
  TV (tumor volume): 821.76 mm^3
[1]; G2, 1 mg/kg i.v. BIW, 12 days
  TGI (tumor growth inhibition): 36.46%
  TV (tumor volume): 1081.49 mm^3
[1]; G2, 1 mg/kg i.v. BIW, 14 days
  TGI (tumor growth inhibition): 39.56%
  TV (tumor volume): 1627.00 mm^3

## Dimyricetin-yl-diselenide
T24
  IC50: 7.69 µM
MBT-2
  IC50: 10.8 µM
HCC1954
  IC50: 9.86 µM
EMT-6
  IC50: 3.16 µM
HCT116
  IC50: 5.52 µM
CT-26.WT
  IC50: 5.65 µM
MKN45
  IC50: 12 µM
MFC
  IC50: 9.55 µM
786-O
  IC50: 5.14 µM
Renca
  IC50: 5.17 µM
Hep G2
  IC50: 12.6 µM
H22
  IC50: 6.64 µM
HCC827
  IC50: 10 µM
LL/2(LLC1)
  IC50: 14.6 µM
A375
  IC50: 5.2 µM
B16-F10
  IC50: 13.1 µM
PANC-1
  IC50: 10.3 µM
Panc 02
  IC50: 14.3 µM
DU145
  IC50: 8.79 µM
RM-1
  IC50: 5.12 µM
SK-OV-3
  IC50: 6.52 µM
[1]; 40 mg/kg dose group
  tumor inhibition compared with the positive control (cisplatin): better tumor inhibition than the positive control
[1]; G3, 40 mg/kg s.c. QD, 0 day (baseline)
  TV (tumor volume): 75.71 mm^3
[1]; G3, 40 mg/kg s.c. QD, 3 days
  TGI (tumor growth inhibition): 9.88%
  TV (tumor volume): 257.17 mm^3
[1]; G3, 40 mg/kg s.c. QD, 5 days
  TGI (tumor growth inhibition): 5.58%
  TV (tumor volume): 355.24 mm^3
[1]; G3, 40 mg/kg s.c. QD, 7 days
  TGI (tumor growth inhibition): 34.02%
  TV (tumor volume): 532.85 mm^3
[1]; G3, 40 mg/kg s.c. QD, 10 days
  TGI (tumor growth inhibition): 41.86%
  TV (tumor volume): 711.79 mm^3
[1]; G3, 40 mg/kg s.c. QD, 12 days
  TGI (tumor growth inhibition): 38.64%
  TV (tumor volume): 1066.44 mm^3
[1]; G3, 40 mg/kg s.c. QD, 14 days
  TGI (tumor growth inhibition): 60.23%
  TV (tumor volume): 1108.65 mm^3
[1]; G4, 20 mg/kg s.c. QD, 0 day (baseline)
  TV (tumor volume): 75.31 mm^3
[1]; G4, 20 mg/kg s.c. QD, 3 days
  TGI (tumor growth inhibition): 29.01%
  TV (tumor volume): 218.25 mm^3
[1]; G4, 20 mg/kg s.c. QD, 5 days
  TGI (tumor growth inhibition): 19.28%
  TV (tumor volume): 314.27 mm^3
[1]; G4, 20 mg/kg s.c. QD, 7 days
  TGI (tumor growth inhibition): 32.35%
  TV (tumor volume): 544.04 mm^3
[1]; G4, 20 mg/kg s.c. QD, 10 days
  TGI (tumor growth inhibition): 39.14%
  TV (tumor volume): 741.18 mm^3
[1]; G4, 20 mg/kg s.c. QD, 12 days
  TGI (tumor growth inhibition): 29.67%
  TV (tumor volume): 1210.83 mm^3
[1]; G4, 20 mg/kg s.c. QD, 14 days
  TGI (tumor growth inhibition): 43.53%
  TV (tumor volume): 1542.11 mm^3
[1]; H22 model, 40 and 20 mg/kg s.c.
  inhibitory effect on the liver cancer tumor model in vivo: significant inhibitory effect
Tumor cells
  inhibitory effect on tumor cells in vitro: significant inhibitory effect
